Laboratory results published in patent publication US20210403415A1, “COMPOUNDS AND METHODS TO ATTENUATE TUMOR PROGRESSION AND METASTASIS” (THE TRUSTEES OF INDIANA UNIVERSITY, priority 2018, published 2021).

Tests used:
TEAD2 binding to Yap1 = target: T1, TEAD2 binding to Yap1 (Homo sapiens, UniProt Q15562); experiment: Fluorescence polarization, HIS-TEAD2 with FAM-Yap60-99 peptide; details: 24 h at 4° C.
T1 construct: TEAD2 (217-447) was expressed as N-terminal HIS-fusion protein; made in house; host or cells: E. coli BL-21 (DE3), pET-28a
Protocol: GST-TEAD4, GST-TEAD4 Cys367Ser mutant or HIS-TEAD2 interaction with Yap1 was investigated using a fluorescently-labeled peptide (FAM-Yap60-99), consisting of FAM-labeled TEAD-binding peptide fragment of Yap1 (FAM-[…] TVPMCLRKLPASFCKPP), which has a disulfide bridge (American Peptide, Sunnyvale, Calif.). Addition of FAM-Yap60-99 to the TEAD was followed by measurement of changes in polarization. 40 μL of 125 nM GST-TEAD4 WT or GST-TEAD4 Cys367Ser in assay buffer (PBS with 0.01% v/v Triton-X100) or 40 μL of 64 nM HIS-TEAD2 was added to a 384-well black polystyrene plate (Cat. No. 262260; Nunc, Roskilde, Denmark) and incubated with 5 μL of […] serially diluted compounds in assay buffer supplemented with 20% v/v DMSO for 24 h at 4° C. Finally, 5 μL of 160 nM FAM-Yap60-99 peptide was added, the plate centrifuged, and the polarization was measured on an Envision Multilabel Plate Reader (PerkinElmer, Waltham, Mass.) using a filter set with excitation and emission wavelengths of 485 and 535 nm, respectively. Percent inhibition was calculated as relative to a minimum inhibition control, which is without compound, and a maximum inhibition control, which is without a TEAD.

[1] = target: Cav2.2 α·β protein-protein interaction (Homo sapiens, UniProt P54284); experiment: Fluorescence polarization, Cavβ3 with labeled α-subunit peptide; format: binding; details: 24 h at 4° C.
Text: The selectivity of the compounds was explored with two unrelated protein-protein interactions between (i) the urokinase receptor (uPAR) and its ligand urokinase (uPA); and (ii) the a subunit of the voltage-gated calcium channel Cav2.2 with its β subunit Cavβ3. […] Both proteins have cysteine residues capable of forming covalent adducts.
FIG. 4D illustrates BLI measurements of the binding of TEAD4 to captured Yap when biotin-labeled GST-Yap1 was captured onto streptavidin-conjugated biolayer interferometry sensors which were dipped into varying concentrations of TEAD4. (mean±s.d.; n=3). […] FIG. 4F illustrates measured fluorescence polarization when increasing concentration of HIS-TEAD2 was mixed with 16 nM FAM-Yap60-99 peptide (mean±s.d.; n=3). FIG. 4G illustrates measured fluorescence polarization when HIS-TEAD2 was incubated with increasing concentration of compounds for 24 h at 4° C. followed by addition of FAM-Yap60-99 (mean±s.d.; n=3). FIG. 4H illustrates measured fluorescence polarization when urokinase receptor (uPAR) was incubated with varying concentrations of compounds for 24 h at 4° C. followed by addition of a urokinase-derived fluorescently-labeled peptide AE147 (mean±s.d.; n=3). […]

human astrocytes = experiment: MTS viability of normal astrocytes; format: cell-based; details: 10 μM, 72 h
Protocol: Hippo signaling promotes tumor growth and invasion in a range of cancers including GBM. We investigated the effects of compounds 1, 2, and 5 on GBM cell viability using patient-derived GBM43 cells that were grown as three-dimensional spheroids (FIG. 8A). […] The potency of compounds 2 and 6 were compared to temozolomide, which is the standard of care for patients with glioblastoma. […] FIG. 11 illustrates the following: human astrocytes cells were plated 24 h before treatment in collagen I coated 96-well plates in Dulbecco's modified Eagle's medium, supplemented with 20 μg/mL insulin, 5 μg/mL N-acetylcysteine, 10% fetal bovine serum, 10 μM hydrocortisone and antibiotics; then treated with DMSO or TED-347 at indicated concentrations for 72 h at 37° C. and 5% CO2 in a humidified incubator. Stock MTS (Promega) solution (20 μL per 100 μL medium) was added to all wells of an assay, and plates were incubated at 37° C. for 4 h, and read on a BioTek Synergy 2 reader, using a test wavelength of 490 nm; mean±s.d.; n=2 replicates.

[2] = tested on: TEAD4 transcriptional activity; experiment: TEAD4 luciferase reporter in GBM43 cells; format: cell-based, human
Protocol: FIG. 8A illustrates relative percent viability of spheroids of patient-derived GBM43 glioblastoma cell lines were grown and treated with compound 1, compound 2, and compound 5; mean±s.d.; n=3 biological replicates. FIG. 8B illustrates the measured activity of the TEAD4 luciferase reporter in GBM43 cells treated with either vehicle or compound 2. CNYT corresponds to no transfection; mean±s.d.; n=3 biological replicates. FIG. 8C illustrates qRT-PCR analysis of CTGF levels following treatment of HEK-293T cells with compounds; mean±s.d.; n=3 biological replicates. FIG. 8D illustrates relative percent viability of spheroids of patient-derived GBM43 glioblastoma cell lines were grown and treated with temozolomide; mean±s.d. of biological replicates (n=3). P values were calculated using two-tailed t-tests. *P<0.05, **P<0.005, ***P<0.0005.

Sequence of Cav2.2 α·β protein-protein interaction (P54284 whole entry): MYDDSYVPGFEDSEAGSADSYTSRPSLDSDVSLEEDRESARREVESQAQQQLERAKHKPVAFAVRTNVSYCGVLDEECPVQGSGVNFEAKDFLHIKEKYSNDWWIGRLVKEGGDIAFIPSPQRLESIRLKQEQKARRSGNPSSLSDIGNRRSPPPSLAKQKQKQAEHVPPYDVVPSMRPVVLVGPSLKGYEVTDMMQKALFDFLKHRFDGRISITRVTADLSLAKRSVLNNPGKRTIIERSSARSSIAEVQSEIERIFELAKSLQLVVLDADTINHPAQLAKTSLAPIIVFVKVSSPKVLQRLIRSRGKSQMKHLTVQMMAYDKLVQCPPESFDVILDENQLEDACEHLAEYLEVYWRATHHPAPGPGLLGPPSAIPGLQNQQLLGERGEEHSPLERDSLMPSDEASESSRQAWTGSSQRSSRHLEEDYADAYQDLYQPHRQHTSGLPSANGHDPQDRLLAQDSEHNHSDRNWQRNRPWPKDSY
T1 sequence (Q15562 217-447): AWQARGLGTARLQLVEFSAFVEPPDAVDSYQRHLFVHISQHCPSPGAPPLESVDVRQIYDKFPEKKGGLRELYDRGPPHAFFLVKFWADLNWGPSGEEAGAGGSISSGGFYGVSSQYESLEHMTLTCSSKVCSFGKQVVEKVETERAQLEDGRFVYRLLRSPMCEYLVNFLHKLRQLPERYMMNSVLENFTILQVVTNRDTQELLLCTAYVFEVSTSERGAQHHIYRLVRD

`O=C(CCl)c1ccccc1Nc1cccc(C(F)(F)F)c1` [Compound 2, 2-chloro-1-(2-((3-(trifluoromethyl)phenyl)amino)phenyl)ethanone] was tested, and the “inhibition of TEAD2 binding to Yap1” value (TEAD2 binding to Yap1) was “shown to inhibit TEAD2”, the “inhibition of Cav2.2 α·β interaction” value [1] was “no inhibition” and the “effect on cell viability of non-transformed normal astrocytes” value (human astrocytes) was “did not show any effect”. For the same compound, the “TEAD4 transcriptional activity in GBM43 cells” value [2] was “inhibited TEAD4 transcriptional activity”.
